The nature of data set [1]: Phase solubility of amiodarone with substituted cyclodextrins. The conditions noted are these: 5% dextrose, 0.9 mM citrate buffer, pH 3.8, room temperature (FIG. 4).
Excerpt: The actual percent of drug that is complexed will vary according to the complexation equilibrium constant characterizing the complexation of a specific cyclodextrin derivative to a specific drug and to the concentrations of the cyclodextrin derivative and drug available for complexation.
Phase solubility studies can also generate information as to the required amounts of a cyclodextrin needed to solubilize a drug under different conditions such as temperature, cyclodextrin type, or solution composition.
For data set [2] the following is noted: cited from earlier work.
For data set [3] the following is noted: Ravin et al. 1975, cited from earlier work.

Results on two compounds are retold here after patent US20120142768A1 (BAXTER INTERNATIONAL INC., priority 2010, published 2012).

Counter-ions that a name gives are not always drawn. Like-named read-outs stand apart in the source and are kept apart here. Some results are limits rather than exact numbers.

For `CCCCc1oc2ccccc2c1C(=O)c1cc(I)c(OCCN(CC)CC)c(I)c1` [amiodarone hydrochloride], the “SBE7-β-CD required for 1.8 mg/mL amiodarone hydrochloride” value in data set [1] was “about 6 mg/mL”.

Take `CCCCc1oc2ccccc2c1C(=O)c1cc(I)c(OCCN(CC)CC)c(I)c1` [amiodarone]: the “Critical micellar concentration (CMC)” value in data set [2] (Ravin et al. 1975) is “approximately 0.5 mg/mL”; in data set [2] (at Krafft point of ~70 °C, Benedini et al. 2010), 1.69 mg/mL. Also, the results for the Amiodarone concentration achievable in data set [3] (25 °C), in data set [3] (40 °C) and in data set [3] (about 60 °C) were 0.35 mg/mL, 0.95 mg/mL and > 13 mg/mL, respectively.
